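The compound was tested at five concentrations on cells cultured in 96-well plates, with a 48-hour exposure period. The concentration for 50% growth inhibition is given as GI50.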 Calls of active or inactive are those of the source. Rule as the data show it: active = GI50 up to about 1.1 µM and inactive = higher.
Assays:
Test in all cases: NCI-60 cell line screen, 48 h
SK-MEL-5 = test system: SK-MEL-5
SK-OV-3 = test system: SK-OV-3
PC-3 = test system: PC-3
SNB-75 = test system: SNB-75
CCRF-CEM = test system: CCRF-CEM
RPMI-8226 = test system: RPMI-8226
UACC-62 = test system: UACC-62
HT-29 = test system: HT-29
MDA-MB-231 = test system: MDA-MB-231
SF-295 = test system: SF-295
MDA-N = test system: MDA-N
M14 = test system: M14
MOLT-4 = test system: MOLT-4
OVCAR-3 = test system: OVCAR-3
RXF 393 = test system: RXF 393
NCI-H522 = test system: NCI-H522
TK-10 = test system: TK-10
Hs-578T = test system: Hs-578T

COc1ccc(CNc2nc3cc(C(F)(F)F)ccc3nc2C(=O)O)cc1
GI50 (SK-MEL-5): 12.3 µM (inactive)
GI50 (SK-OV-3): 40.4 µM (inactive)
GI50 (PC-3): 31.2 µM (inactive)
GI50 (SNB-75): 38 µM (inactive)
GI50 (CCRF-CEM): 27.1 µM (inactive)
GI50 (RPMI-8226): 39.3 µM (inactive)
GI50 (UACC-62): 21.9 µM (inactive)
GI50 (HT-29): 24 µM (inactive)
GI50 (MDA-MB-231): 26.9 µM (inactive)
GI50 (SF-295): 32 µM (inactive)
GI50 (MDA-N): 27.7 µM (inactive)
GI50 (M14): 22.4 µM (inactive)
GI50 (MOLT-4): 21.8 µM (inactive)
GI50 (OVCAR-3): 15.3 µM (inactive)

Cn1ncc2c(Nc3cccc(Cl)c3)nc(Nc3cccc(Cl)c3)nc21
GI50 (SK-MEL-5): > 35.6 µM (inactive)
GI50 (SK-OV-3): 20 µM (inactive)
GI50 (PC-3): 8.24 µM (inactive)
GI50 (RXF 393): 3.48 µM (inactive)
GI50 (NCI-H522): 8.93 µM (inactive)
GI50 (TK-10): 11.5 µM (inactive)
GI50 (SNB-75): 7.93 µM (inactive)
GI50 (CCRF-CEM): 1.15 µM (inactive)
GI50 (Hs-578T): 12 µM (inactive)
GI50 (RPMI-8226): 3.61 µM (inactive)
GI50 (UACC-62): 13.7 µM (inactive)
GI50 (HT-29): 3.87 µM (inactive)
GI50 (MDA-MB-231): 16.7 µM (inactive)
GI50 (SF-295): 5.47 µM (inactive)
GI50 (M14): 6.7 µM (inactive)
GI50 (MOLT-4): 4.68 µM (inactive)
GI50 (OVCAR-3): 18.5 µM (inactive)

C=C1c2nc3ccccc3n2C=C(c2ccc(Cl)cc2)N1c1ccc(OC)cc1
GI50 (SK-MEL-5): 6.53 µM (inactive)
GI50 (SK-OV-3): 10.7 µM (inactive)
GI50 (PC-3): 15.4 µM (inactive)
GI50 (RXF 393): 10.1 µM (inactive)
GI50 (NCI-H522): 4 µM (inactive)
GI50 (TK-10): 4.82 µM (inactive)
GI50 (SNB-75): 2.67 µM (inactive)
GI50 (CCRF-CEM): > 100 µM (inactive)
GI50 (RPMI-8226): 14.5 µM (inactive)
GI50 (UACC-62): 13 µM (inactive)
GI50 (MDA-MB-231): 12.7 µM (inactive)
GI50 (SF-295): 6.19 µM (inactive)
GI50 (MDA-N): 13.2 µM (inactive)
GI50 (M14): 7.8 µM (inactive)
GI50 (MOLT-4): 73.1 µM (inactive)
GI50 (OVCAR-3): 10.8 µM (inactive)

O=C(O[C@H](/C=C/c1ccccc1)P1(=O)N(Cc2ccccc2)[C@H]2CCCC[C@@H]2N1Cc1ccccc1)c1ccccc1
GI50 (SK-MEL-5): 1.87 µM (inactive)
GI50 (SK-OV-3): 5.85 µM (inactive)
GI50 (PC-3): 3.58 µM (inactive)
GI50 (NCI-H522): 3.48 µM (inactive)
GI50 (TK-10): > 100 µM (inactive)
GI50 (CCRF-CEM): 3.48 µM (inactive)
GI50 (Hs-578T): 9.31 µM (inactive)
GI50 (RPMI-8226): 3.42 µM (inactive)
GI50 (UACC-62): 5.33 µM (inactive)
GI50 (HT-29): 3.8 µM (inactive)
GI50 (MDA-MB-231): 3.49 µM (inactive)
GI50 (SF-295): 3.74 µM (inactive)
GI50 (MDA-N): 3.52 µM (inactive)
GI50 (M14): 4.5 µM (inactive)
GI50 (OVCAR-3): 3.94 µM (inactive)

CC#CCCCC1(C)CCNC1=S (stereo unspecified)
GI50 (SK-OV-3): > 10 µM (inactive)
GI50 (PC-3): > 10 µM (inactive)
GI50 (RXF 393): > 10 µM (inactive)
GI50 (NCI-H522): > 10 µM (inactive)
GI50 (TK-10): > 10 µM (inactive)
GI50 (SNB-75): > 10 µM (inactive)
GI50 (CCRF-CEM): > 10 µM (inactive)
GI50 (Hs-578T): > 10 µM (inactive)
GI50 (HT-29): > 10 µM (inactive)
GI50 (SF-295): > 10 µM (inactive)
GI50 (MDA-N): > 10 µM (inactive)
GI50 (M14): > 10 µM (inactive)
GI50 (MOLT-4): > 10 µM (inactive)
GI50 (OVCAR-3): > 10 µM (inactive)

CC(C)N(C(=O)C12C3(C(=O)OC(C)(C)C)C4C5(C#N)C3C1(C(=O)OC(C)(C)C)C5C42C(=O)OC(C)(C)C)C(C)C (stereo unspecified)
GI50 (SK-MEL-5): 60.1 µM (inactive)
GI50 (PC-3): 51.1 µM (inactive)
GI50 (RXF 393): 12.9 µM (inactive)
GI50 (NCI-H522): 35.3 µM (inactive)
GI50 (TK-10): > 100 µM (inactive)
GI50 (SNB-75): 0.149 µM (active)
GI50 (CCRF-CEM): 10.9 µM (inactive)
GI50 (Hs-578T): 28.7 µM (inactive)
GI50 (UACC-62): 40.6 µM (inactive)
GI50 (HT-29): 34.6 µM (inactive)
GI50 (MDA-MB-231): 23 µM (inactive)
GI50 (SF-295): 58.2 µM (inactive)
GI50 (MDA-N): 19.1 µM (inactive)
GI50 (M14): 59.6 µM (inactive)
GI50 (MOLT-4): 13.6 µM (inactive)
GI50 (OVCAR-3): 47.8 µM (inactive)

CC1CC/C(=C\c2ccc(F)cc2)C2=C1C(c1ccc(F)cc1)n1c(s/c(=C\c3ccc(Cl)cc3)c1=O)=N2 (stereo unspecified)
GI50 (SK-MEL-5): > 100 µM (inactive)
GI50 (SK-OV-3): > 100 µM (inactive)
GI50 (PC-3): > 100 µM (inactive)
GI50 (RXF 393): > 100 µM (inactive)
GI50 (TK-10): > 100 µM (inactive)
GI50 (CCRF-CEM): > 100 µM (inactive)
GI50 (Hs-578T): > 100 µM (inactive)
GI50 (RPMI-8226): > 100 µM (inactive)
GI50 (UACC-62): > 100 µM (inactive)
GI50 (HT-29): > 100 µM (inactive)
GI50 (MDA-MB-231): > 100 µM (inactive)
GI50 (MDA-N): > 100 µM (inactive)
GI50 (M14): > 100 µM (inactive)
GI50 (MOLT-4): > 100 µM (inactive)

C1CSCCSCCCSCCSCCCSCCSCCCSCCSC1
GI50 (SK-MEL-5): > 100 µM (inactive)
GI50 (SK-OV-3): > 100 µM (inactive)
GI50 (PC-3): 69.3 µM (inactive)
GI50 (RXF 393): > 100 µM (inactive)
GI50 (NCI-H522): > 100 µM (inactive)
GI50 (TK-10): > 100 µM (inactive)
GI50 (CCRF-CEM): > 100 µM (inactive)
GI50 (Hs-578T): > 100 µM (inactive)
GI50 (RPMI-8226): 86.1 µM (inactive)
GI50 (HT-29): > 100 µM (inactive)
GI50 (SF-295): > 100 µM (inactive)
GI50 (MDA-N): > 100 µM (inactive)
GI50 (M14): > 100 µM (inactive)
GI50 (MOLT-4): > 100 µM (inactive)
GI50 (OVCAR-3): > 100 µM (inactive)

CC(C)[Si]1(C(C)C)OCC2OC(n3ccc(=O)[nH]c3=O)C(O)(CO)C2O[Si](C(C)C)(C(C)C)O1 (stereo unspecified)
GI50 (SK-MEL-5): 15.1 µM (inactive)
GI50 (SK-OV-3): 16.4 µM (inactive)
GI50 (PC-3): 13 µM (inactive)
GI50 (RXF 393): 15.6 µM (inactive)
GI50 (TK-10): 17.4 µM (inactive)
GI50 (CCRF-CEM): 12.4 µM (inactive)
GI50 (Hs-578T): 3.31 µM (inactive)
GI50 (RPMI-8226): 9.82 µM (inactive)
GI50 (UACC-62): 15.8 µM (inactive)
GI50 (HT-29): 15 µM (inactive)
GI50 (MDA-MB-231): 13.6 µM (inactive)
GI50 (SF-295): 15 µM (inactive)
GI50 (M14): 19.1 µM (inactive)
GI50 (MOLT-4): 12.3 µM (inactive)
GI50 (OVCAR-3): 15.8 µM (inactive)
